Here are results for one compound from ChEMBL document CHEMBL5537176, “Discovery of Novel Pyridazine-Tethered Sulfonamides as Carbonic Anhydrase II Inhibitors for the Management of Glaucoma” (J Med Chem, 2024).

This experiment concerns the target Carbonic anhydrase 9 (Homo sapiens, UniProt Q16790). The experiment is described as follows: Inhibition of human CA IX assessed as inhibition constant by stopped-flow CO2 hydrase assay method.

For the compound `COc1cc2c(cc1OC)-c1c(c(C(=O)Nc3ccc(S(N)(=O)=O)cc3)nn1C)C2`, the Ki was 3.2 nM.

The term Ki denotes the equilibrium dissociation constant of an inhibitor or competing ligand from its target.
